# Assay results from PubChem BioAssay AID2060899 (Molecular Pharmacology Branch, DTP, NCI, 2025).
# Tested on: 565726-208-R1-J5-PDC complex spheroids, growth inhibition
# Assay: Anticancer human tumor 565726-208-R1-J5-PDC patient-derived pancreatic adenocarcinoma cell line growth inhibition [RAS]
# Conditions: for IC50: curve of first compound; for viability, T/C: stronger effect = lower value
# Method in brief: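 Multi-cell-type spheroids: tumor cells plus HUVEC endothelial cells and mesenchymal stem cells. RAS-pathway inhibitors were combined with targeted agents, each dosed in half-log steps down from clinical Cmax, or from 10 microM when Cmax was unknown.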
# [1] = second compound 0.000949 µM, first compound 0.0316 µM
# [2] = second compound 0.000949 µM, first compound 0.1 µM
# [3] = second compound 0.000949 µM, first compound 0.316 µM
# [4] = second compound 0.000949 µM, first compound 1 µM
# [5] = second compound 0.000949 µM, first compound 3.16 µM
# [6] = second compound 0.000949 µM, first compound 10 µM
# [7] = second compound 0.003 µM, first compound 0.0316 µM
# [8] = second compound 0.003 µM, first compound 0.1 µM
# [9] = second compound 0.003 µM, first compound 0.316 µM
# [10] = second compound 0.003 µM, first compound 1 µM
# [11] = second compound 0.003 µM, first compound 3.16 µM
# [12] = second compound 0.003 µM, first compound 10 µM
# [13] = second compound 0.00949 µM, first compound 0.0316 µM
# [14] = second compound 0.00949 µM, first compound 0.1 µM
# [15] = second compound 0.00949 µM, first compound 0.316 µM
# [16] = second compound 0.00949 µM, first compound 1 µM
# [17] = second compound 0.00949 µM, first compound 3.16 µM
# [18] = second compound 0.00949 µM, first compound 10 µM
# [19] = second compound 0.03 µM, first compound 0.0316 µM
# [20] = second compound 0.03 µM, first compound 0.1 µM
# [21] = second compound 0.03 µM, first compound 0.316 µM
# [22] = second compound 0.03 µM, first compound 1 µM
# [23] = second compound 0.03 µM, first compound 3.16 µM
# [24] = second compound 0.03 µM, first compound 10 µM
# [25] = second compound 0.0949 µM, first compound 0.0316 µM
# [26] = second compound 0.0949 µM, first compound 0.1 µM
# [27] = second compound 0.0949 µM, first compound 0.316 µM
# [28] = second compound 0.0949 µM, first compound 1 µM
# [29] = second compound 0.0949 µM, first compound 3.16 µM
# [30] = second compound 0.0949 µM, first compound 10 µM
# [31] = second compound 0.3 µM, first compound 0.0316 µM
# [32] = second compound 0.3 µM, first compound 0.1 µM
# [33] = second compound 0.3 µM, first compound 0.316 µM
# [34] = second compound 0.3 µM, first compound 1 µM
# [35] = second compound 0.3 µM, first compound 3.16 µM
# [36] = second compound 0.3 µM, first compound 10 µM
# 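Note: spheroids exposed to compounds for seven days before readout.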
# 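Throughout, for viability, T/C: 100% = DMSO vehicle control viability.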
compound,measurement,setting,value
CC(C)NCC(C(=O)N1CCN(c2ncnc3c2C(C)CC3O)CC1)c1ccc(Cl)cc1 (stereo not drawn) + CCn1c(-c2cc(N3CCN(C)CC3)cnc2C(C)OC)c2c3cc(ccc31)-c1csc(n1)CC(NC(=O)C1CC1C)C(=O)N1CCCC(N1)C(=O)OCC(C)(C)C2,IC50,second compound 0.000949 µM,1.52 µM
same,IC50,second compound 0.003 µM,0.347 µM
same,IC50,second compound 0.00949 µM,< 0.0316 µM
same,IC50,second compound 0.03 µM,< 0.0316 µM
same,IC50,second compound 0.0949 µM,< 0.0316 µM
same,IC50,second compound 0.3 µM,< 0.0316 µM
same,"viability, T/C",[1],66.7%
same,"viability, T/C",[2],64.6%
same,"viability, T/C",[3],62.8%
same,"viability, T/C",[4],51.7%
same,"viability, T/C",[5],43.9%
same,"viability, T/C",[6],28.7%
same,"viability, T/C",[7],59.2%
same,"viability, T/C",[8],58.8%
same,"viability, T/C",[9],48.7%
same,"viability, T/C",[10],41.2%
same,"viability, T/C",[11],38.3%
same,"viability, T/C",[12],21.4%
same,"viability, T/C",[13],42.5%
same,"viability, T/C",[14],41.8%
same,"viability, T/C",[15],38.5%
same,"viability, T/C",[16],34.5%
same,"viability, T/C",[17],33.1%
same,"viability, T/C",[18],18.3%
same,"viability, T/C",[19],32%
same,"viability, T/C",[20],34.1%
same,"viability, T/C",[21],30.6%
same,"viability, T/C",[22],28.5%
same,"viability, T/C",[23],24.7%
same,"viability, T/C",[24],14.7%
same,"viability, T/C",[25],27%
same,"viability, T/C",[26],25.5%
same,"viability, T/C",[27],26.7%
same,"viability, T/C",[28],21%
same,"viability, T/C",[29],17.9%
same,"viability, T/C",[30],12.5%
same,"viability, T/C",[31],25.5%
same,"viability, T/C",[32],22.5%
same,"viability, T/C",[33],22.1%
same,"viability, T/C",[34],18.8%
same,"viability, T/C",[35],19.7%
same,"viability, T/C",[36],12%
CC(C)n1nc(-c2ccc3oc(N)nc3c2)c2c(N)ncnc21 + CCn1c(-c2cc(N3CCN(C)CC3)cnc2C(C)OC)c2c3cc(ccc31)-c1csc(n1)CC(NC(=O)C1CC1C)C(=O)N1CCCC(N1)C(=O)OCC(C)(C)C2,IC50,second compound 0.000949 µM,0.0019 µM
same,IC50,second compound 0.003 µM,< 0.000316 µM
same,IC50,second compound 0.00949 µM,< 0.000316 µM
same,IC50,second compound 0.03 µM,< 0.000316 µM
same,IC50,second compound 0.0949 µM,< 0.000316 µM
same,IC50,second compound 0.3 µM,< 0.000316 µM
same,"viability, T/C","second compound 0.000949 µM, first compound 0.000316 µM",65.3%
same,"viability, T/C","second compound 0.000949 µM, first compound 0.001 µM",48.7%
same,"viability, T/C","second compound 0.000949 µM, first compound 0.00316 µM",51.4%
same,"viability, T/C","second compound 0.000949 µM, first compound 0.01 µM",36.5%
same,"viability, T/C",[1],23.8%
same,"viability, T/C",[2],17.7%
same,"viability, T/C","second compound 0.003 µM, first compound 0.000316 µM",48.6%
same,"viability, T/C","second compound 0.003 µM, first compound 0.001 µM",45.6%
same,"viability, T/C","second compound 0.003 µM, first compound 0.00316 µM",38.6%
same,"viability, T/C","second compound 0.003 µM, first compound 0.01 µM",28.4%
same,"viability, T/C",[7],20.7%
same,"viability, T/C",[8],14.1%
same,"viability, T/C","second compound 0.00949 µM, first compound 0.000316 µM",40.4%
same,"viability, T/C","second compound 0.00949 µM, first compound 0.001 µM",35.5%
same,"viability, T/C","second compound 0.00949 µM, first compound 0.00316 µM",30.6%
same,"viability, T/C","second compound 0.00949 µM, first compound 0.01 µM",22.7%
same,"viability, T/C",[13],15.7%
same,"viability, T/C",[14],10.6%
same,"viability, T/C","second compound 0.03 µM, first compound 0.000316 µM",30%
same,"viability, T/C","second compound 0.03 µM, first compound 0.001 µM",31.1%
same,"viability, T/C","second compound 0.03 µM, first compound 0.00316 µM",26%
same,"viability, T/C","second compound 0.03 µM, first compound 0.01 µM",17.5%
same,"viability, T/C",[19],13.2%
same,"viability, T/C",[20],8.25%
same,"viability, T/C","second compound 0.0949 µM, first compound 0.000316 µM",26.7%
same,"viability, T/C","second compound 0.0949 µM, first compound 0.001 µM",25.9%
same,"viability, T/C","second compound 0.0949 µM, first compound 0.00316 µM",20.3%
same,"viability, T/C","second compound 0.0949 µM, first compound 0.01 µM",14.6%
same,"viability, T/C",[25],10.4%
same,"viability, T/C",[26],6.63%
same,"viability, T/C","second compound 0.3 µM, first compound 0.000316 µM",22.7%
same,"viability, T/C","second compound 0.3 µM, first compound 0.001 µM",21.3%
same,"viability, T/C","second compound 0.3 µM, first compound 0.00316 µM",18.9%
same,"viability, T/C","second compound 0.3 µM, first compound 0.01 µM",15.1%
same,"viability, T/C",[31],11.1%
same,"viability, T/C",[32],6.78%
CC(Nc1ccc2c(c1)OCCn1cc(N3C(=O)OCC3C(F)F)nc1-2)C(N)=O (stereo not drawn) + CCn1c(-c2cc(N3CCN(C)CC3)cnc2C(C)OC)c2c3cc(ccc31)-c1csc(n1)CC(NC(=O)C1CC1C)C(=O)N1CCCC(N1)C(=O)OCC(C)(C)C2,IC50,second compound 0.000949 µM,0.316 µM
same,IC50,second compound 0.003 µM,< 0.0316 µM
same,IC50,second compound 0.00949 µM,< 0.0316 µM
same,IC50,second compound 0.03 µM,< 0.0316 µM
same,IC50,second compound 0.0949 µM,< 0.0316 µM
same,IC50,second compound 0.3 µM,< 0.0316 µM
same,"viability, T/C",[1],62.7%
same,"viability, T/C",[2],49%
same,"viability, T/C",[3],50.6%
same,"viability, T/C",[4],47.7%
same,"viability, T/C",[5],40.2%
same,"viability, T/C",[6],32.9%
same,"viability, T/C",[7],49.7%
same,"viability, T/C",[8],48.4%
same,"viability, T/C",[9],39.7%
same,"viability, T/C",[10],37.2%
same,"viability, T/C",[11],36.3%
same,"viability, T/C",[12],24.2%
same,"viability, T/C",[13],44.5%
same,"viability, T/C",[14],37.4%
same,"viability, T/C",[15],32.9%
same,"viability, T/C",[16],29.6%
same,"viability, T/C",[17],26.4%
same,"viability, T/C",[18],19.5%
same,"viability, T/C",[19],31.9%
same,"viability, T/C",[20],26.9%
same,"viability, T/C",[21],26.8%
same,"viability, T/C",[22],24.9%
same,"viability, T/C",[23],22.4%
same,"viability, T/C",[24],13.3%
same,"viability, T/C",[25],24.8%
same,"viability, T/C",[26],24.6%
same,"viability, T/C",[27],23.1%
same,"viability, T/C",[28],18.5%
same,"viability, T/C",[29],18.4%
same,"viability, T/C",[30],12.1%
same,"viability, T/C",[31],22.6%
same,"viability, T/C",[32],20.9%
same,"viability, T/C",[33],20.1%
same,"viability, T/C",[34],19.3%
same,"viability, T/C",[35],15.6%
same,"viability, T/C",[36],10.7%
C[C@@H](NC(=O)c1ncnc(N)c1Cl)c1ncc(C(=O)Nc2cc(C(F)(F)F)c(Cl)cn2)s1 + CCn1c(-c2cc(N3CCN(C)CC3)cnc2C(C)OC)c2c3cc(ccc31)-c1csc(n1)CC(NC(=O)C1CC1C)C(=O)N1CCCC(N1)C(=O)OCC(C)(C)C2,IC50,second compound 0.000949 µM,> 10 µM
same,IC50,second compound 0.003 µM,> 10 µM
same,IC50,second compound 0.00949 µM,< 0.0316 µM
same,IC50,second compound 0.03 µM,< 0.0316 µM
same,IC50,second compound 0.0949 µM,< 0.0316 µM
same,IC50,second compound 0.3 µM,< 0.0316 µM
same,"viability, T/C",[1],65.1%
same,"viability, T/C",[2],73.5%
same,"viability, T/C",[3],76.7%
same,"viability, T/C",[4],69.5%
same,"viability, T/C",[5],72.1%
same,"viability, T/C",[6],58%
same,"viability, T/C",[7],61%
same,"viability, T/C",[8],57.5%
same,"viability, T/C",[9],57.3%
same,"viability, T/C",[10],58.1%
same,"viability, T/C",[11],56.8%
same,"viability, T/C",[12],46.5%
same,"viability, T/C",[13],48%
same,"viability, T/C",[14],48.2%
same,"viability, T/C",[15],49.9%
same,"viability, T/C",[16],48%
same,"viability, T/C",[17],52.5%
same,"viability, T/C",[18],40.8%
same,"viability, T/C",[19],34.9%
same,"viability, T/C",[20],39.1%
same,"viability, T/C",[21],36.2%
same,"viability, T/C",[22],37.4%
same,"viability, T/C",[23],40.3%
same,"viability, T/C",[24],31.4%
same,"viability, T/C",[25],31.2%
same,"viability, T/C",[26],32.2%
same,"viability, T/C",[27],31.7%
same,"viability, T/C",[28],32.5%
same,"viability, T/C",[29],32.9%
same,"viability, T/C",[30],29.1%
same,"viability, T/C",[31],24.6%
same,"viability, T/C",[32],27.8%
same,"viability, T/C",[33],26.7%
same,"viability, T/C",[34],29.8%
same,"viability, T/C",[35],31%
same,"viability, T/C",[36],28.2%
